According to paper PMC8639922, “KSHV transactivator-derived small peptide traps coactivators to attenuate MYC and inhibits leukemia and lymphoma cell growth” (Communications Biology, 2021):
Square brackets hold non-standard residues; d marks the D form. Peptide text beside a SMILES is read from it. Orn = NCCC[C@H](N)C(=O)O; βAla = NCCC(=O)O

Test system: 5 SWI/SNF components
Assay: ELISA-based peptide binding assay, summary for all five proteins
Conditions: biotin-conjugated peptide, same peptide concentrations
Protocol: Fig. 3 Effects of VGN50 on KSHV gene transcription and VGN50 binding with SWI/SNF components. a KSHV qRT-PCR array analysis was used to study effects of VGN50 on KSHV gene transcription in a genome-wide manner. Uninduced (−; no doxycycline added) or dox-induced (+; 1 μg/ml) cells were treated with VGN50 or the mutant peptide (Mut-P) at a concentration of 24 μM. Samples were collected at 24 h post-treatment. Expression in uninduced cells was set as 1 for each viral gene and expression shown as fold activation relative to no-Dox samples. Selected cellular genes were also included in the PCR array for comparison. 18S ribosomal RNA was used as an internal control. b KSHV protein expression. […] Peptide binding measured as OD values at 450 nm are shown. […]
To confirm the basis of the VGN50 action, the biochemical interactions between VGN50 and SWI/SNF proteins (i.e., putative VGN50 target molecules), were examined by ELISA-based binding assays using purified five individual SWI/SNF components prepared from baculovirus-infected Sf9 cells (Fig. 3d). Increasing concentrations of biotin-conjugated VGN50 or Mut-P were incubated in an ELISA plate coated with each SWI/SNF component, and the bound peptides were detected by HRP-streptavidin (Fig. 3e). […]

Compound: CC(C)C[C@H](NC(=O)CCNC(=O)[C@H](CCCNC(=N)N)NC(=O)[C@H](CCCNC(=N)N)NC(=O)[C@H](CCCNC(=N)N)NC(=O)[C@H](CCCN)NC(=O)[C@H](CCCNC(=N)N)NC(=O)[C@H](CCCNC(=N)N)NC(=O)[C@H](CCCCN)NC(=O)[C@H](CCCCN)NC(=O)[C@H](N)CCCNC(=N)N)C(=O)N[C@@H](CO)C(=O)N[C@@H](CO)C(=O)N[C@@H](C)C(=O)N[C@@H](C)C(=O)N[C@@H](C)C(=O)NCC(=O)N[C@@H](CC(C)C)C(=O)N[C@@H](Cc1ccc(O)cc1)C(=O)N[C@@H](CCC(N)=O)C(=O)N[C@@H](CC(C)C)C(=O)N[C@@H](CC(=O)O)C(=O)N[C@H](C(=O)O)[C@@H](C)O [Mt-P] (H-[dR]KKRR[Orn]RRR[βAla]LSSAAAGLYQLDT-OH; N-terminus and C-terminus assumed)
- Binding to SWI/SNF components compared with VGN50: did not bind SWI/SNF components as much as VGN50
